Like-named read-outs stand apart in the source and are kept apart here.
Experiments:
KV4.3 = molecular target: T1, KV4.3 (Homo sapiens, UniProt Q9UK17); assay: Whole-cell patch clamp on KV4.3 (Ito); assay type: cell-based; settings: read-out: Reference compound % inhibition
T1 construct: expressed in transfected cells
T1 sequence (Q9UK17 1-655): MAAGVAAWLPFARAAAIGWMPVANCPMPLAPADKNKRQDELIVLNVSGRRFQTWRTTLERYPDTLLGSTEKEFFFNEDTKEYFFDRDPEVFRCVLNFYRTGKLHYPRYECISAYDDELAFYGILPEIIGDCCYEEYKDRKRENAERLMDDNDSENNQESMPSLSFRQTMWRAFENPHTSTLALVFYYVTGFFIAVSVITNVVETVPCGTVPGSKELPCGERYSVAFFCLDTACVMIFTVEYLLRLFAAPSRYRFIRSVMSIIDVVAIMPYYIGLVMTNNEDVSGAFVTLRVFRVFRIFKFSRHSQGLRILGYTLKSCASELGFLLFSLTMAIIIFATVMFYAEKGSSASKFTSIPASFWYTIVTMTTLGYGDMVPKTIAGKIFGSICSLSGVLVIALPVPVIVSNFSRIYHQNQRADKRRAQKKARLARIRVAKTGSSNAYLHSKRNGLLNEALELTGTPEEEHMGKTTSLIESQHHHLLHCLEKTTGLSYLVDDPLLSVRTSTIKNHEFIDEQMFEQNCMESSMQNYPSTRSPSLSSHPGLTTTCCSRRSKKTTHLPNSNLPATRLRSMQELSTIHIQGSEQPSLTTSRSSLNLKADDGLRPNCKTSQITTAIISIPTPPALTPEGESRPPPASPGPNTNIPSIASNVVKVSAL
Procedure: (§1) and CiPA Initiative Studies
(§2) =============================================================
(§3) In vitro studies on other ion channels […]
(§4) through NaV1.5, KV4.3, KV7.1/mink, Kir2.1, KV1.5, CaV1.2 and CaV3.2 channels.
(§5) 35-mm dish culture in the conditions mentioned in standard cell culture conditions. Experiments were performed with a cell density enabling isolated cells for patch clamping. Cells were continuously superfused with extracellular medium (1-2 mL∙minute-1) at room temperature.
(§6) D-glucose 10, HEPES 10 and the final pH adjusted to 7.4±0.02 with NaOH for recording NaV1.5, KV4.3, KV7.1/mink, Kir2.1, KV1.5 and CaV3.2 currents. It was (in mM): NaCl 110, KCl 4, BaCl2 20, MgCl2 1, D-glucose 20, HEPES 10 and the final pH adjusted to 7.4 ± 0.02 with NaOH for recording the CaV1.2 current. Compositions of the intracellular solution to fill the pipette are […]
(§7) Composition of intracellular solutions used to fill pipette to record currents through NaV1.5, KV4.3, KV7.1/mink, Kir2.1, KV1.5, CaV1.2 and CaV3.2 channels
(§8) Solution to fill the pipette (mM)
(§9) Creatine-phospho kinase 50 U∙mL-1
(§10) After formation of a Gigaohm seal between the patch electrodes and individual cells (pipette resistance range: 2.0 MΩ - 7.0 MΩ; seal resistance range: > 1 GΩ) the cell membrane across the pipette tip was ruptured to assure electrical access to the cell interior (whole-cell patch-configuration). In case the quality of the seal was poor, the process of seal formation was repeated with a different cell and a new pipette. As soon as a stable seal was established outward tail currents were measured upon pulses described in the Table S2. If current density was judged to be too low for measurement, another cell was recorded. […]
(§11) voltage stimulation protocol indicated in the next table continuously run until the steady-state level of block was reached.
(§12) Stimulation conditions used to record currents through NaV1.5, KV4.3, KV7.1/mink, Kir2.1, KV1.5, CaV1.2 and CaV3.2 channels
(§13) Ion channel Holding potential Pulse / duration Frequency Reference compound […]
(§14) (resting / fast / slow sweeps at one (10 mM) inactivated concentration)

late sodium current = tested on: late sodium current; design: method as in Johannesen et al., 2016; settings: at the concentrations that caused approximately 20 ms shortening of QTc; ref Johannesen et al., 2016; cited from earlier work
Kir2.1 = molecular target: T2, Kir2.1 (Homo sapiens, UniProt P63252); assay: Whole-cell patch clamp on Kir2.1 (IK1); assay type: cell-based; settings: Kir2.1 IK1; 10 μM
T2 construct: expressed in transfected cells
T2 sequence (P63252 1-427): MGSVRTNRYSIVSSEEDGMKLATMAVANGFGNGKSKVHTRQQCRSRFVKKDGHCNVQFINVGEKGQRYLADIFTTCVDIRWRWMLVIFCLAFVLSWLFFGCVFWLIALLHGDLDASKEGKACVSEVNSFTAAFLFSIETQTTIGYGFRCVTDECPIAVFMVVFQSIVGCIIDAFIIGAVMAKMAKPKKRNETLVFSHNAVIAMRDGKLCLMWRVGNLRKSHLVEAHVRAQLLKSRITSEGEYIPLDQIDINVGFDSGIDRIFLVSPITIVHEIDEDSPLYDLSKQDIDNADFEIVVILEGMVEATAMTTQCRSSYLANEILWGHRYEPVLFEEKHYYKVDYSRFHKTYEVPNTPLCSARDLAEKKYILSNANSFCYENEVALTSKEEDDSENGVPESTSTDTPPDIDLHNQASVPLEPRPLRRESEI
Procedure: as §1, §2, §3, §4, §5, §6, §7, §8, §9, §10, §11, §12, §13, §14

KV7.1/mink = molecular target: T3, KV7.1/mink (Homo sapiens, UniProt P51787); assay: Whole-cell patch clamp on KV7.1/mink (IKs); assay type: cell-based; settings: read-out: Reference compound % inhibition
T3 construct: expressed in transfected cells
Procedure: as §1, §2, §3, §4, §5, §6, §7, §8, §9, §10, §11, §12, §13, §14

CaV3.2 = molecular target: T4, CaV3.2 (Homo sapiens, UniProt O95180); assay: Whole-cell patch clamp on CaV3.2 (ICaT); assay type: cell-based; settings: read-out: Reference compound % inhibition
T4 construct: expressed in transfected cells
T4 sequence (O95180 whole entry): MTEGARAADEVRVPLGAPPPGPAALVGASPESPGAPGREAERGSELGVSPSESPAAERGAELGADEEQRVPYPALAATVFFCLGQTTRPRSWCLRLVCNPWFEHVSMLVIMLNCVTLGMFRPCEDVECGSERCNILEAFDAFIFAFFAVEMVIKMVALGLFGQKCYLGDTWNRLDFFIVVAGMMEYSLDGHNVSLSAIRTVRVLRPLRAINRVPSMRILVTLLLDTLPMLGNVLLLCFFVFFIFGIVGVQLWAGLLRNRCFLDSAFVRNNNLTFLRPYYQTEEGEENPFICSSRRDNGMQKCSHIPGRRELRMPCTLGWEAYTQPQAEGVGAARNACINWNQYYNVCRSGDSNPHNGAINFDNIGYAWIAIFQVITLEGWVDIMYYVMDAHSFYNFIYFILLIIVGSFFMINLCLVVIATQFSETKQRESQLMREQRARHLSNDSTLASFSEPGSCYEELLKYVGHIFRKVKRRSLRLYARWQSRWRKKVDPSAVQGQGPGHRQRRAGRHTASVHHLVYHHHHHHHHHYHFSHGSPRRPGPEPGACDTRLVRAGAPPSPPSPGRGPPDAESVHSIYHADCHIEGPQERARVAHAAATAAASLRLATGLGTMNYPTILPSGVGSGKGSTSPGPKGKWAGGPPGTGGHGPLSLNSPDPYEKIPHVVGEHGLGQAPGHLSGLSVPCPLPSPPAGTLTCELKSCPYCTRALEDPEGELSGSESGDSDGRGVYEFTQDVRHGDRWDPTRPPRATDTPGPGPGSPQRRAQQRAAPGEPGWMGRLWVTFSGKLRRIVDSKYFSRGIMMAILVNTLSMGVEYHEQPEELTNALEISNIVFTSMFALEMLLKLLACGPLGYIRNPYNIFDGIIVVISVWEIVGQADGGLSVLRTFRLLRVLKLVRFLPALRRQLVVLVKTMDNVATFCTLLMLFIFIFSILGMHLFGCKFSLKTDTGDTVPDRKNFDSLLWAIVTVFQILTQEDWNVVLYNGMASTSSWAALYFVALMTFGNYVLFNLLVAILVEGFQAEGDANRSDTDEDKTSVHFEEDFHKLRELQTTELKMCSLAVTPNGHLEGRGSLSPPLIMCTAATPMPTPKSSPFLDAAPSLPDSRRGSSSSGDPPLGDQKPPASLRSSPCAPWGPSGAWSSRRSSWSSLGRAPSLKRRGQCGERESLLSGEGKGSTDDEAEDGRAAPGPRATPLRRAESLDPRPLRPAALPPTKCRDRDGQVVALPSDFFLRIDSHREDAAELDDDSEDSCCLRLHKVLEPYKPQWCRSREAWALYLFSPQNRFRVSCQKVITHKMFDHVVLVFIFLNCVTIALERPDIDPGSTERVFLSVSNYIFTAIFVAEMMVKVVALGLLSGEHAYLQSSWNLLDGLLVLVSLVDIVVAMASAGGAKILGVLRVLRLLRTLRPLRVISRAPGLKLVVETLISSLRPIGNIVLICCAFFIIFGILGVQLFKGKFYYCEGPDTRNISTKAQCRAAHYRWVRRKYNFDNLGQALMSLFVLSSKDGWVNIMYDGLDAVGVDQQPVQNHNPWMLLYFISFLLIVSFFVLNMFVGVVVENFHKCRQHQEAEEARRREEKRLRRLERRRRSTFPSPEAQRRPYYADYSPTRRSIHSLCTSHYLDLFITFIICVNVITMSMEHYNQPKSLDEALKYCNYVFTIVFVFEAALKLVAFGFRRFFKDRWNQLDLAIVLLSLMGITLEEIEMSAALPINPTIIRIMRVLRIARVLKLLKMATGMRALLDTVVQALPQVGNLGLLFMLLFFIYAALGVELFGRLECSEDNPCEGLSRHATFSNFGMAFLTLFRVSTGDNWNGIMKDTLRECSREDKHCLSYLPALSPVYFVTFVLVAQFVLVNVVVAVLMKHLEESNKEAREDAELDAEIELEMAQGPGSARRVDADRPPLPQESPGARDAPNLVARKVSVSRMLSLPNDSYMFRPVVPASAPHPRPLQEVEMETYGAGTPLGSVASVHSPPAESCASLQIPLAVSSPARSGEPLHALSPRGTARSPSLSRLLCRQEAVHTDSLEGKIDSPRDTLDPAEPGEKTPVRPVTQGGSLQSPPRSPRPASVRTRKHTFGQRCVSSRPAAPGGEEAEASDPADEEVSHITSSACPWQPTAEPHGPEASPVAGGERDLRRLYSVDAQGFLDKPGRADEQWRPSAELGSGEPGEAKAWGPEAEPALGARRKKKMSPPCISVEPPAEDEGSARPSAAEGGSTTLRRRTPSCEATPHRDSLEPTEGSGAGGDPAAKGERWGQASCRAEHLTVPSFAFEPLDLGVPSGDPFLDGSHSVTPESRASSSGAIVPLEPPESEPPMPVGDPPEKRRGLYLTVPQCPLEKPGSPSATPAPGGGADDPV
Procedure: as §1, §2, §3, §4, §5, §6, §7, §8, §9, §10, §11, §12, §13, §14

KV1.5 = molecular target: T5, KV1.5 (Homo sapiens, UniProt P22460); assay: Whole-cell patch clamp on KV1.5 (IKur); assay type: cell-based; settings: read-out: Reference compound % inhibition
T5 construct: expressed in transfected cells
T5 sequence (P22460 whole entry): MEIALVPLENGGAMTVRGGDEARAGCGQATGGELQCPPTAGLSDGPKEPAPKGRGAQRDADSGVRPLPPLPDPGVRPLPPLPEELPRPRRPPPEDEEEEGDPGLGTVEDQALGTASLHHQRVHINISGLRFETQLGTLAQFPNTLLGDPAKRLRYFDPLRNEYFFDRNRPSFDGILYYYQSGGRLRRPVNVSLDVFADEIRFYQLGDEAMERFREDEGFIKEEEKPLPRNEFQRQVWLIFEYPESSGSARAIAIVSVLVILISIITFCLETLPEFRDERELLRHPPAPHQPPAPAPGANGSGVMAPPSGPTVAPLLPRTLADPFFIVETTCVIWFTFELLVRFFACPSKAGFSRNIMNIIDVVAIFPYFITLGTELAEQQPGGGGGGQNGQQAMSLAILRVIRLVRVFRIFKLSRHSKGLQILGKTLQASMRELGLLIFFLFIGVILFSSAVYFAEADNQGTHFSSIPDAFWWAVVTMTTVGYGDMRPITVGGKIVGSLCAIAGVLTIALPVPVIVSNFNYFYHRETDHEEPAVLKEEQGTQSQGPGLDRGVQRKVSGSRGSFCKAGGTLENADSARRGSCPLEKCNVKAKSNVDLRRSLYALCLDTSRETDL
Procedure: as §1, §2, §3, §4, §5, §6, §7, §8, §9, §10, §11, §12, §13, §14

anaesthetized rabbits = tested on: anaesthetized rabbits
Procedure: All the other experimental groups were 100% female. Animals were anaesthetized with sodium pentobarbital (45–60 mg·kg^−1 i.v.), maintained on a heated pad and mechanically ventilated with room air. […] A fluid‐filled catheter was inserted into the carotid artery to measure systemic arterial blood pressure and for blood sampling. A venous catheter was implanted into the jugular vein for infusion of drugs. Standard surface ECG leads I, II and III were monitored continuously to measure ECG intervals and the occurrence of ventricular tachyarrhythmia. Measurements of arterial blood pressures were calculated over 30 s duration at baseline and every 5 min. […] Then, for all determinations, the means of 10–30 consecutive sinus beats were automatically calculated at each time point (i.e. at the end of the stabilization period and then every 5 until 60 min after starting drug infusion) or until the occurrence of premature ventricular beats. Parameters recorded were systolic, diastolic and mean arterial blood pressure (mmHg), heart rate (beats·min^‐1 calculated from RR interval) as well as PR, QRS and QT/QTU intervals (ms), amplitudes of T‐wave and U‐wave (mV) and rhythm disturbances retrieved from ECG signals. […] Arrhythmia were scored according to the following scale: 0 being no arrhythmia, 1 being premature beats, 2 being auriculo‐ventricular blocks, 3 being ventricular tachycardia and 4 being TdP; and scores correspond to the average of maximal life‐threatening arrhythmias recorded during the experiment. […] Haemodynamic and ECG recordings were monitored continuously over 60 min following the start of infusion.

[1] = tested on: methoxamine‐sensitized rabbits; assay: in vivo; design: species or system rabbit; settings: clofilium 20.5 μg·kg^−1·min^−1
Procedure: All the other experimental groups were 100% female.
The anaesthetized methoxamine‐sensitized rabbit model of TdP is frequently used to study torsadogenic potential of drugs (Carlsson et al., 1990). Briefly, female animals were pre‐sensitized with i.v. infusion of methoxamine, an α1‐adrenoceptor agonist, delivered at 15 μg·kg^−1·min^−1 (6 mL·h^−1) over 70 min.

rabbit Purkinje fibres = assay: Dofetilide-induced early after-depolarizations and triggered activity in rabbit Purkinje fibres; assay type: cell-based
Procedure: Following a lethal dose of pentobarbital, the hearts of male New Zealand rabbits were immediately excised and immersed in a modified Tyrode solution maintained at room temperature and previously saturated with O2/CO2 (95%/5%). A piece of ventricle containing free running Purkinje fibres was fixed to the silastic bottom of an organ bath perfused with the same solution maintained at 37°C for 30 min. The preparation was then superfused with the modified Tyrode solution and stimulated for 30 min at 2 Hz and then at 1 Hz (2 ms stimulus at twice threshold). […] After a stabilization period of at least 1 h, action potentials typical for Purkinje fibres were recorded. Action potential reproducibility and stability were confirmed during a further 20 min stabilization period. […] Each was applied for 20 min to enable steady state to be reached. In addition, the emergence of early after‐depolarizations (EADs), favoured by calcium loading during the late phase 2 of the prolonged action potential, is recognized as a better marker of pro‐arrhythmic potential than APD prolongation alone.

hERG = tested on: hERG; design: method as in Jonker et al., 2005; settings: simulation study; 95% CI: 12–32 ms; ref Jonker et al., 2005; cited from earlier work
[2] = in vivo; cited from earlier work
fast INa = settings: read-out: IC50 for fast INa; ref Gao et al., 2013; cited from earlier work
hERG channel [3] = settings: cited from earlier work
canine Purkinje fibres = tested on: canine Purkinje fibres; design: method as in Fazekas et al., 1998; settings: mexiletine (10 mM) added after erythromycin, ref Fazekas et al., 1998; cited from earlier work
late INa [4] = settings: read-out: IC50 for late INa; ref Gao et al., 2013; cited from earlier work
late INa [5] = settings: at clinical Cmax; ref Vicente et al., 2015; cited from earlier work
late INa current = tested on: late INa current; design: method as in Obejero‐Paz et al., 2015; settings: ref Obejero‐Paz et al., 2015; cited from earlier work
hERG channel [6] = settings: cited from earlier work; remark: listed apart in the source

## CN(C)[C@@H](CCOc1cccc2ccccc12)c1ccccc1 [Dapoxetine, reference compound]
KV4.3
  inhibition at 30 µM: 74%

## CCN(CC)CC(=O)Nc1c(C)cccc1C [Lidocaine]
Late sodium current
  block of late sodium current: about 20%

## COc1ccc(CNCc2cccc3ccccc23)cc1 [ML 133, reference compound]
Kir2.1
  Reference compound % inhibition: ML 133 (10 μM): 96%

## OC(c1cc(C(F)(F)F)nc2c(C(F)(F)F)cccc12)C1CCCCN1 (centres unmarked) [Mefloquine, reference compound]
KV7.1/mink
  inhibition at 10 µM: 61%

## COCC(=O)O[C@]1(CCN(C)CCCc2nc3ccccc3[nH]2)CCc2cc(F)ccc2[C@@H]1C(C)C [Mibefradil, reference compound]
CaV3.2
  inhibition at 1 µM: 83%

## CC(C)(C)c1ccc(C(O)CCCN2CCC(C(O)(c3ccccc3)c3ccccc3)CC2)cc1 (centres unmarked) [Terfenadine, reference compound]
KV1.5
  inhibition at 10 µM: 81%

## CCCCCCC[N+](CC)(CC)CCCCc1ccc(Cl)cc1 [clofilium, reference compound]
Anaesthetized rabbits; both, rabbit, in vivo
  QTc interval (ms) (mean ± SEM): 152 ± 2 ms
Anaesthetized rabbits; both, rabbit, in vivo, 20 min
  QTc interval (ms) (mean ± SEM): 157 ± 3 ms
Anaesthetized rabbits; both, rabbit, in vivo, 30 min
  QTc interval (ms) (mean ± SEM): 168 ± 5 ms
Anaesthetized rabbits; both, rabbit, in vivo, 40 min
  QTc interval (ms) (mean ± SEM): 172 ± 8 ms
Anaesthetized rabbits; both, rabbit, in vivo, iv, 60 min
  prolongation of QTc interval vs. baseline: +13 ± 5%
Anaesthetized rabbits; clofilium up to 1 mg·kg^−1, n = 3/4
  TdP occurrence: 75%
Anaesthetized rabbits; clofilium up to 1 mg·kg^−1, n = 4/4
  ventricular tachycardia incidence: 100%
[1]
  increase in UTA ratio: 90%

## CN(CCOc1ccc(NS(C)(=O)=O)cc1)CCc1ccc(NS(C)(=O)=O)cc1 [dofetilide, reference compound]
Rabbit Purkinje fibres; 0.1 μM
  induction of EADs or triggered activity: all 10 preparations
Rabbit Purkinje fibres; dofetilide 0.1 μM for 35 min, 0.25 Hz, trace of Figure 3B
  APD90: 593 ms
hERG
  QT prolongation corresponding to a 10% hERG blockade: 20 ms

## Cc1cccc(C)c1OCC(C)N (centres unmarked) [mexiletine]
[2]
  therapeutic concentrations: 3.4 to 9.5 µM
Late sodium current
  block of late sodium current: about 20%
Fast INa
  IC50: 34.6 ± 2.9 µM
hERG channel [3]
  IC50: 3.7 ± 0.7 µM
Canine Purkinje fibres
  disappearance of erythromycin-induced EADs (preparations): 7/9
Late INa [4]
  IC50: 17.6 ± 1.9 µM

## COc1ccccc1OCC(O)CN1CCN(CC(=O)Nc2c(C)cccc2C)CC1 (centres unmarked) [ranolazine]
Late INa [5]
  block of late INa: 21%

## Fc1ccc(C(OCCN2CCN(CCCc3ccccc3)CC2)c2ccc(F)cc2)cc1 [vanoxerine]
Late INa current
  IC50: 0.0852 µM
hERG channel [6]
  IC50: […]
